Consider 2 compounds from ChEMBL document CHEMBL1132039, “Isotope edited NMR studies of glycosidases: design and synthesis of a novel glycosidase inhibitor” (Bioorg Med Chem Lett, 1999).

A short description of assay [1]: Inhibitory potency against glucosidase was determined. Details: species or system Saccharomyces cerevisiae; call rule not given here.
Assay [2] has as its target Lysosomal alpha-glucosidase (Homo sapiens, UniProt P10253). As to the kind of experiment: Inhibitory potency for alpha-glucosidase was determined at concentration up to 3.0 mM; No inhibition. Details: species or system Saccharomyces cerevisiae.

Each structure is given as a SMILES string.

By Ki is commonly meant the dissociation constant of the complex between target and ligand, obtained from inhibition or displacement. Low readings indicate higher affinity, high ones lower affinity.

Take `NCC(=O)N1C[C@H](O)[C@@H](O)[C@H](O)[C@H]1CO`: affinity in assay [1] was put at a Ki of 23 µM.

On to `OC[C@@H]1[C@@H](O)[C@H](O)[C@@H](O)CN1Cc1ccccc1`, for which the Ki result in assay [2] is on record as “Not Active”.
